The numbers were not newly measured in US6184241A, “Aspartic protease inhibitors” (Kansas State University Research Foundation, priority 1998, dated 2001), which cites them from elsewhere.

The conditions of this data set: heterocyclic ring.

As to `c1c[nH]cn1` [imidazole], the pKa was 6.0-7.0.
